Measurements as given in the OPERA property sets (Mansouri et al. 2018).

| SMILES | logP |
| --- | --- |
| Cc1ccc(Nc2c([N+](=O)[O-])c(C)nn2-c2ccccc2)cc1 | 3.43 |
| Nc1ccc(Cl)cc1Cl | 2.78 |
| NS(=O)(=O)c1ccc(Cl)cc1 | 1.15 |
| COc1cc(C(N)=O)ccc1-c1nc2ccncc2[nH]1 | 1.18 |
| CC1c2nc3ccccc3c(=O)n2CN1C (stereo not given) | 0.85 |
| CC(=O)C1CCC2C3CC(C)C4=CC(=O)CCC4(C)C3C(=O)CC12C (stereo not given) | 2.75 |
| C[N+](C)(C)CC1CSCO1.[I-] (stereo not given) | -2.7 |
| CCn1cc(C(=O)OCOC(C)=O)c(=O)c2ccc(C)nc21 | 1.21 |
| Cc1ncc(OP(=O)(O)O)c(CO)c1O | -0.64 |
| O=C(NN1CC=CCC1)C1CC1 | 1.12 |
| NCC1(CC(=O)O)CCCCC1 | -1.1 |
| CN1C(CSCC(F)(F)F)Nc2cc(Cl)c(S(N)(=O)=O)cc2S1(=O)=O (stereo not given) | 1.9 |
| CCCC(=NOCC)C1C(=O)CC(C)(C2CC2)OC1=O (stereo not given) | 3.28 |
| O=[N+]([O-])c1cccc(S(=O)(=O)[O-])c1.[Na+] | -2.61 |
| CC(=O)CC(c1ccc([N+](=O)[O-])cc1)c1c(O)c2ccccc2oc1=O (stereo not given) | 1.98 |
| NC(=O)NCCCCCCn1nc(-c2ccccc2)ccc1=O | 1.82 |
| COC(=O)c1cnc2n(c1=O)CCCC2 | -0.25 |
| O=C(O)Cc1ccc(O)c(O)c1 | 0.98 |
| NC(=O)COc1ccc(OCCNCC(O)COc2ccccc2)cc1 (stereo not given) | 1.1 |
| CC(=O)O[C@H]1C[C@H](O[C@H]2[C@@H](O)C[C@H](O[C@H]3[C@@H](O)C[C@H](OC4CC[C@@]5(C)[C@H](CC[C@@H]6[C@@H]5CC[C@]5(C)[C@@H](C7=CC(=O)OC7)CC[C@]65O)C4)O[C@@H]3C)O[C@@H]2C)O[C@H](C)[C@H]1O[C@@H]1O[C@H](CO)[C@@H](O)[C@H](O)[C@H]1O (stereo not given in full) | 1.23 |
| CCN(C)C(=O)CCn1ccc(=O)c(O)c1C | -0.69 |
| Cc1ccc(Cn2cc(F)c(=O)[nH]c2=O)cc1 | 1.5 |
| Cc1cc(=O)c(=O)[nH][nH]1 | -0.3 |

| SMILES | logP |
| --- | --- |
| O=c1[nH]c(=S)ccn1[C@H]1CC[C@@H](CO)O1 | -0.21 |
| NS(=O)(=O)c1cc2c(cc1C(F)(F)F)NC=NS2(=O)=O | 0.32 |
| NC(=O)Cc1ccc(C(=O)O)cc1 | 0.3 |
| CC(=O)OCC1=C(C(=O)OCOC(=O)C(C)(C)C)N2C(=O)C(NC(=O)CSc3ccncc3)C2SC1 (stereo not given) | 1.63 |
| Cc1ccc(Cc2cnc(NCCCCc3ncc(Br)cc3C)[nH]c2=O)cn1 | 3.57 |
| C[C@]12CCC(=O)C=C1CC[C@@H]1[C@@H]2CC[C@@]2(C)[C@H]1CC[C@]2(O)C(=O)CO | 3.08 |
| CON1C(=O)CC2(CCCC2)C1=O | 1.15 |
| Nc1c(Cl)c(Cl)c(Cl)c(Cl)c1Cl | 4.82 |
| CC(=O)NCc1ccc(OCC(O)CNC(C)C)cc1 (stereo not given) | 0.32 |
| CC(C)(C)C(COc1ccc(Cl)cc1)OC(=S)n1ccnc1 (stereo not given) | 4.96 |
| CN(C)C(=O)NCCCn1nc(-c2ccccc2)ccc1=O | 1.61 |
| CC(C)CC1NC(=O)NC1=O (stereo not given) | 0.35 |
| CCOC(=O)c1cnc2n(c1=O)C(C)CCC2 (stereo not given) | 0.62 |
| COC(=O)C(C#N)=Cc1ccc(SC)o1 | 2.61 |
| CCC(CC)(C(=O)NC(N)=O)C(=O)OCC(=O)OC | 0.99 |
| Cn1cnc([N+](=O)[O-])c1Cl | 1.06 |
| Cc1cc2c(cc1S(N)(=O)=O)S(=O)(=O)NC=N2 | -0.32 |
| Nc1ccc(S(=O)(=O)c2c(O)cc(O)cc2O)cc1 | 1.53 |
| CC(C)NC(=N)NC(=N)Nc1ccc(Cl)cc1 | 2.53 |
| OC(CN1C2CCCCCC21)Cn1ccnc1 (stereo not given) | 1.44 |
| CCOP(=O)(OCC)SCS(=O)C(C)(C)C (stereo not given) | 2.66 |
| O=C(CCN1CCCCC1)CN1C(=O)CC(c2ccc(Cl)cc2)C1=O (stereo not given) | 2.23 |
| Nc1ccc(Cl)c(Cl)c1Cl | 3.33 |

| SMILES | logP |
| --- | --- |
| Cc1onc(-c2c(F)cccc2Cl)c1C(=O)NC1C(=O)N2C1SC(C)(C)C2C(=O)O (stereo not given) | 2.58 |
| O=C(O)COc1ccccc1[N+](=O)[O-] | 1.13 |
| CC(=O)Nc1cc(C(C)(C)C)c(O)cc1C | 2.18 |
| Cc1cccc(Nc2c([N+](=O)[O-])c(C)nn2-c2ccccc2)c1 | 3.25 |
| CCOP(=S)(OCC)Oc1nc(Cl)c(Cl)cc1Cl | 4.96 |
| CC1CCCC2C1N2CC(O)Cn1ccnc1 (stereo not given) | 1.55 |
| CCCCSC(=Nc1cccnc1)SCc1ccc(C(C)(C)C)cc1 | 7 |
| CNC(=C[N+](=O)[O-])NCCSCc1nc[nH]c1C | -0.4 |
| Nn1c(S)nnc(-c2cc(Cl)cc(Cl)c2)c1=O | 2.67 |
| NS(=O)(=O)c1cc2c(cc1Cl)NC(c1ccccc1)=NS2(=O)=O | 1.4 |
| Cc1nc2ccccn2c(=O)c1C | 1 |
| CN1C(O)C(O)C(O)C(O)C1CO (stereo not given) | -2.4 |
| Nc1ccc(C(=O)O)c(O)c1 | 0.89 |
| CCNc1nc(C)c(C(=O)CCN(C)C)s1 | 2.21 |
| CN(c1ccccc1)S(C)(=O)=O | 1.02 |
| CCOC(=O)C1(c2ccccc2)CCN(CCC(O)c2ccccc2)CC1 (stereo not given) | 4.04 |
| COC(=O)c1ccccc1S(=O)(=O)NC(=O)Nc1nc(C)nc(OC)n1 | 2.2 |
| CCCCC(=O)OC[C@H]1O[C@@H](n2cc(I)c(=O)[nH]c2=O)C[C@@H]1O | 1.44 |
| CCCN1CCOC2c3cccc(O)c3OCC21 (stereo not given) | 1.93 |
| CCc1c(O)c(=O)ccn1C(C)C | 0.73 |
| CNC12CCCCC1CCc1ccc(OC)cc12 (stereo not given) | 3.75 |
| CCOC(=O)NC1=NCC(c2ccc(F)cc2)N1C (stereo not given) | 1.9 |
| Oc1cc(Cl)c(Cl)c(Cl)c1O | 3.71 |

| SMILES | logP |
| --- | --- |
| OC(Cn1ccnc1)(c1ccccc1)c1ccc(Br)cc1 (stereo not given) | 3.35 |
| Cc1c(O)c(=O)ccn1CCCCO | -0.74 |
| CCOP(=O)(O)Cc1ccc(F)cc1 | 1.25 |
| NS(=O)(=O)c1cc2c(cc1F)N=CNS2(=O)=O | -0.29 |
| O=P(OCC(Br)CBr)(OCC(Br)CBr)OCC(Br)CBr (stereo not given) | 4.29 |
| NC1C2CCC1c1cc(C(F)(F)F)ccc1C2 (stereo not given) | 3.59 |
| COC(=O)c1ccccc1O | 2.55 |
| CCCCCCCC(=O)N[C@@H]1C(=O)N2[C@@H]1SC(C)(C)[C@@H]2C(=O)O | 3.32 |
| CC(C)c1ccc(OCC(OC(=S)n2ccnc2)C(C)(C)C)cc1 (stereo not given) | 5.21 |
| CCCCCN(C)C(=O)c1cccc(Oc2ccccc2)c1 | 4.43 |
| COc1ccc(CON2C(=O)CC3(CCCC3)C2=O)cc1 | 2.23 |
| COc1c(O)c(Cl)c(Cl)c(Cl)c1Cl | 4.59 |
| CC(=O)Nc1nc(NC(O)CC(O)CO)c(Cl)nc1[N+](=O)[O-] (stereo not given) | -0.66 |
| COC(=O)c1cnc2n(c1=O)C(C)CCC2 (stereo not given) | 0.16 |
| NC(=O)c1csc([C@@H]2O[C@H](CO)[C@@H](O)[C@H]2O)n1 | -1.73 |
| CCCCCCn1ccc(=O)c(O)c1C | 1.9 |
| NCc1ccccc1Sc1ccccc1CO | 2.39 |
| CCOC(=O)C1=CNC2CCCCN2C1=O (stereo not given) | 0.57 |
| NCCc1cn2ccccc2n1 | 0.59 |
| CCCCCCCCN(C)N=Nc1[nH]cnc1C(N)=O | 3.22 |
| OC(Cn1ccnc1)(c1ccc(F)cc1)c1ccc(Br)cc1 (stereo not given) | 3.42 |
| CCOC(=O)Nc1ccc2c(c1)N(C(=O)CCN1CCOCC1)c1ccccc1S2 | 2.98 |
| CCOP(=O)(OCC)OC(=CCl)c1ccc(Cl)cc1Cl | 3.81 |

| SMILES | logP |
| --- | --- |
| CNC12CCCCC1CSc1ccccc12 (stereo not given) | 3.88 |
| CC(C)(C)C(COc1ccc(F)cc1)OC(=O)n1ccnc1 (stereo not given) | 3.68 |
| CCCCCCC(=O)N(C)c1ccc(S(=O)(=O)N(C)C)cc1 | 2.61 |
| COC(=O)Nc1nc2cc(C(=O)c3ccccc3)ccc2[nH]1 | 2.83 |
| N#Cc1ccc(Cl)cc1 | 2.47 |
| CCCC(=O)n1c(=O)[nH]cc(F)c1=O | 0.67 |
| CCCCCCCCOc1ccc(NC(=O)OCCN2CCOCC2)cc1 | 4.8 |
| CSc1nnc(-c2cc(Cl)cc(Cl)c2)c(=O)n1N | 3.02 |
| CCN1Cn2c(nc3ccccc3c2=O)C1C (stereo not given) | 1.02 |
| N#Cc1ccccn1 | 0.45 |
| O=C(O)CCCCCOc1cccc2ccccc12 | 4.5 |
| COc1cccc2c1C(=O)c1c(O)c3c(c(O)c1C2=O)CC(O)(C(C)=O)CC3OC1CC(N(CC#N)CC(=O)O)C(O)C(C)O1 (stereo not given) | 0.03 |
| Oc1ccc(C(O)(Cn2ccnc2)c2ccc(-c3ccncc3)cc2)cc1 (stereo not given) | 2.49 |
| O=C(O)COc1ccc(Oc2ccc(Cl)cc2Cl)cc1 | 4.51 |
| CCCCCCCS[C@@H]1O[C@H](CO)[C@H](O)[C@H](O)[C@H]1O | 1.5 |
| CCOC(=O)Cn1cnc(I)c1[N+](=O)[O-] | 0.93 |
| COc1cccc(C2C(=O)c3ccccc3C2=O)c1 | 2.88 |
| C=C1C(=O)OC2C1CCC(C)C1(O)CCC(=O)C21C (stereo not given) | 0.83 |
| CCCCC(=O)CC(=O)CCCC | 3.56 |
| CC(CN1CCCCC1)C(=O)c1ccccc1 (stereo not given) | 3.51 |
| CCCCCCOc1ccc(CC(=O)O)cc1 | 3.96 |
| CCCn1ccc(=O)c(O)c1CC | 0.7 |
| NCC(O)c1ccc(O)cc1 (stereo not given) | -0.9 |

| SMILES | logP |
| --- | --- |
| Cc1onc(-c2ccccc2Cl)c1C(=O)NC1C(=O)N2C1S(=O)C(C)(C)C2C(=O)O (stereo not given) | 2 |
| O=c1ccnc2n1CCCC2 | -0.14 |
| CCCNC(=O)CCn1ccc(=O)c(O)c1C | -0.4 |
| Cc1ncc([N+](=O)[O-])n1CC(O)Cn1c([N+](=O)[O-])cnc1C | 0.31 |
| O=c1c2ccccc2nc2n1CCCC2 | 1.52 |
| S=C=Nc1cccc(Cl)c1 | 3.36 |
| CCOC(=O)n1c(NC(=O)OC)nc2cc(C(=O)c3ccccc3)ccc21 | 2.93 |
| CCc1cc2n(c1C(=O)c1ccc(F)cc1)CCC2C(=O)O (stereo not given) | 3.63 |
| Clc1ccc(C(c2ccc(Cl)cc2)C(Cl)Cl)cc1 | 6.02 |
| CNC(=O)NC(=O)C(C)(C(=O)OC)C1C=CCCC1 (stereo not given) | 1.75 |
| CCOC(=O)C1=C(C)NC(C)=C(C(=O)OC)C1c1cccc(Cl)c1Cl (stereo not given) | 3.86 |
| CNC(=O)c1cccc(Oc2cc(C)ccc2C)c1 | 3.76 |
| CCOCCOCCOP(=S)(N1CC1)N1CC1 | 0.38 |
| CCCC(=NOCC)C1C(=O)CC(c2ccccc2)(c2ccccc2)OC1=O (stereo not given) | 4.75 |
| NC(=S)c1ccc([N+](=O)[O-])cc1 | 1.75 |
| COc1ncnc2c1ncn2C1OC(CO)C(OC(=O)C(C)(C)C)C1OC(=O)C(C)(C)C (stereo not given) | 3.61 |
| COC(=O)c1c(C)[nH]c(-c2cccc(Cl)n2)c1C(=O)OC | 2.65 |
| CC1c2cccc(O)c2C(=O)C2=C(O)C3(O)C(=O)C(C(N)=O)=C(O)C(N(C)C)C3C(O)C21 (stereo not given) | -0.02 |
| Nc1ccc(C(F)(F)F)cc1 | 1.95 |
| COc1ccc(C(=O)CCCC(=O)O)cc1 | 1.63 |
